Source: the supplement of paper PMC8183993
Where a name gives a salt, the structure may show the parent alone.

How the values were obtained:
Details in all cases: 24 h
[1] = test system: U2OS; test: nuclei count in OPP assay relative to DMSO (% of DMSO); higher = more viable cells
Experimental: (§1)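 Validation screen in U2OS cells: hits tested at 1, 3 and 10 uM for 24 h in duplicate plates. Translation was read by OPP incorporation (1 h pulse) and HPG incorporation (30 min in methionine-free medium), quantified by high-throughput microscopy alongside nuclei counts. All values are normalised to DMSO (= 100).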

[2] = test system: U2OS; test: mean OPP incorporation (global translation) relative to DMSO (% of DMSO); higher = more protein synthesis
Experimental: as §1

[3] = test system: U2OS; test: mean HPG incorporation (global translation) relative to DMSO (% of DMSO); higher = more protein synthesis
Experimental: as §1

[4] = test system: U2OS; test: nuclei count in HPG assay relative to DMSO (% of DMSO); higher = more viable cells
Experimental: as §1

SMILES | nuclei count in OPP assay ([1]; 1 µM) | nuclei count in OPP assay ([1]; 3 µM) | nuclei count in OPP assay ([1]; 10 µM) | mean OPP incorporation ([2]; 1 µM) | mean OPP incorporation ([2]; 3 µM) | mean OPP incorporation ([2]; 10 µM) | mean HPG incorporation ([3]; 1 µM) | mean HPG incorporation ([3]; 3 µM) | mean HPG incorporation ([3]; 10 µM) | nuclei count in HPG assay ([4]; 1 µM) | nuclei count in HPG assay ([4]; 3 µM) | nuclei count in HPG assay ([4]; 10 µM)
CC(C)(C)c1nc(-c2cccc(NS(=O)(=O)c3c(F)cccc3F)c2F)c(-c2ccnc(N)n2)s1 | 101 | 102 | 104 | 102 | 97.2 | 114 | 50.8 | 48 | 106 | 96.6 | 100 | 104
CCn1c(-c2nonc2N)nc2cnc(Oc3cccc(NC(=O)c4ccc(OCCN5CCOCC5)cc4)c3)cc21 | 102 | 101 | 82.6 | 97.1 | 97.5 | 97.5 | 73.1 | 71.8 | 76.4 | 99 | 96.3 | 76.4
COc1cc(COc2cc(N)c(Cl)cc2C(=O)CCC2CCN(CCNS(C)(=O)=O)CC2)cc(OC)c1 | 95.1 | 97.5 | 79.8 | 121 | 122 | 120 | 82.2 | 83.4 | 58.1 | 100 | 106 | 90.1
COc1cc(NC(=O)c2ccccn2)ccc1Cl | 105 | 91 | 88.2 | 83.8 | 79.6 | 70.9 | 106 | 113 | 116 | 103 | 95 | 96.2
COc1cc2c(cc1C(F)(F)F)N(C(=O)Nc1cc(F)cc(-c3cccnc3)c1)CC2 | 96.9 | 93.9 | 88.4 | 102 | 112 | 117 | 95.1 | 98.3 | 74.3 | 95.9 | 95 | 89
C[C@@H]1CN(CC(=O)Nc2ccc3c(c2)Cc2cccc(-c4cc(=O)cc(N5CCOCC5)o4)c2S3)C[C@H](C)O1 | 96.9 | 88 | 92.3 | 103 | 108 | 102 | 70.2 | 64.9 | 55 | 98.7 | 89.5 | 81.6
Cc1c(C)c2c(c(C)c1O)CC[C@](C)(CN1CCN(c3cc(N4CCCC4)nc(N4CCCC4)n3)CC1)O2 | 95.4 | 101 | 102 | 98.2 | 97.2 | 111 | 90.2 | 93.4 | 87.1 | 94.9 | 102 | 98
O=c1cc(N2CCOCC2)oc2c(-c3cccc4c3sc3ccccc34)cccc12 | 97.4 | 87.4 | 89.1 | 92.6 | 107 | 104 | 66.7 | 74.8 | 61.8 | 96.8 | 89.5 | 79.6
COc1ccccc1N1CCN(CCN2C(=O)c3ccccc3C(C)(C)C2=O)CC1 [ARC 239 dihydrochloride] | 98.8 | 101 | 100 | 100 | 117 | 120 | 102 | 116 | 122 | 106 | 101 | 98.3
